Results on 6 molecules are retold here after US20090304615A1, “TRICYCLIC COMPOUNDS AS MELANOGENESIS MODIFIERS AND USES THEREOF” (priority 2007, published 2009).

The assay has as its system cultured murine melanocytes (melan-a). The experiment in a line: Melanin assay in cultured murine melanocytes (melan-a). It is filed as cell-based. Conditions: Mus musculus, melan-a cells; for IC50: melanin synthesis, read-out: IC50 range; for inhibition at 1 µM / inhibition at 5 µM: melanin formation, 72 hours of incubation. How it is done: The Spectrum Collection library consisting of 2000 drug compounds or natural products was screened to identify novel pigmentation inhibitors or stimulators in cultured murine melanocytes (melan-a). Compounds were dissolved in dimethylsulfoxide (DMSO) to a final concentration of 10 mM. Screening was performed with cultured melanocytes in 24-well plates followed by melanin assay (see below). […] DMSO was used as a negative control and the widely used depigmenting agent, hydroquinone, was used as a positive control on every plate. […] All compounds were added at the indicated final concentrations. Cells were harvested after 72 hours of incubation, and melanin assay was performed. For further test and mechanism of action studies, the compounds were purchased from either Sigma or Microsoure. These compounds were dissolved in dimethylsulfoxide (DMSO) to a final concentration of 10 mM, and were tested for their effect on melanin synthesis at the indicated final concentrations. For the primary and secondary screening, cells were harvested and dissolved in 200 μl of 2N NaOH in 20% DMSO at 70° C. A 180-μl aliquot of the resulting solution was measured for absorbance at 490 nm. […] The lysates were centrifuged at 14,000 rpm for 10 minutes at 4° C. BCA protein assay kit (Pierce) was used to measure the protein concentrations of the supernatants, and bovine serum albumin was used as a standard. […] A 180-μl aliquot of the resulting solution was measured for absorbance at 490 nm. The melanin contents were normalized to the total amount of protein.

Counter-ions that a name gives are not always drawn. Bounds are passed on as bounds.

The IC50 is the concentration that gives 50% inhibition. Take `CNCCCN1c2ccccc2CCc2ccccc21` [compound 6, Despramine hydrochloride]: the IC50 is 2500 to 5000 nM.
By inhibition is commonly meant the change of the read-out against control, counted positive when it falls. For `CC(CN(C)C)CN1c2ccccc2CCc2ccccc21` (centres unmarked) [compound 3, Trimpramine maleate], the inhibition at 1 µM was 28%, the inhibition at 5 µM worked out at 48% and the half-maximal inhibitory concentration (IC50) was 1000 to 2500 nM.
With `CNCCCC1c2ccccc2C=Cc2ccccc21` [compound 8, Protriptyline hydrochloride], the 50% inhibitory concentration (IC50) is 5000 to 10000 nM.
As to `CN(C)CCC=C1c2ccccc2CCc2ccccc21` [compound 2, Amitriptyline hydrochloride], the inhibition at 1 µM was 51%, testing at 5 µM gave an inhibition of 65% and the IC50 is less than 1000 nM.
The matching figures for `CN(C)CCCN1c2ccccc2CCc2ccccc21` [compound 5, Imipramine hydrochloride]: 34%, 60% and less than 1000 nM.
`CNCCC=C1c2ccccc2CCc2ccccc21` [compound 1, Nortriptyline]: the inhibition at 1 µM was 39%, the inhibition at 5 µM was 58% and the IC50 is 1000 to 2500 nM.
